Counter-ions that a name gives are not always drawn.
How the values were obtained:
[1] = system: TNF α; assay: Inhibitory activity on production of TNF α in mouse model with LPS-induced sepsis; type: in vivo, BALB/c male mice; settings: for Ratio of inhibition (%) of TNF α production: Dose (mg) 30, orally administered 90 minutes before LPS i.v., serum TNF α by ELISA 1 hour after LPS
[2] = target: T1, Recombinant Human PDE IV Enzyme (HSPDE4A) (Homo sapiens, UniProt P27815); assay: Inhibition test on recombinant human PDE IV enzyme; type: biochemical; settings: [3H]cAMP substrate
T1 construct: except that 223 amino acids have been deleted from the N-terminal thereof; made in house; host or cells: E. coli
Method: Inhibition Test on Recombinant Human PDE IV Enzyme
Human phosphodiesterase cDNA (HSPDE4A) was isolated from testicles. Its predicted amino acid sequence is identical with the sequence (HSPDE4A5) reported by Bolger, G. et al. (Mol. Cell. Biol., 6558 (1993)) except that 223 amino acids have been deleted from the N-terminal thereof. This recombinant protein was expressed by an E. coli expression plasmid and then purified. The PDE activity was measured in the following 2-step process according to the method of Kincaid, R. and Manganiello, V. [Method. Enzymol., 159, 457 (1988)]. The substrate used was [^3H]cAMP (final concentration: […]), and the reaction was performed in a standard mixture containing N,N-bis(2-hydroxyethyl)-2-aminoethanesulfonic acid (50 mmol/l, pH 7.2), MgCl2 (1 mmol/l) and soybean trypsin inhibitor (0.1 mg/ml). The reaction was initiated by adding the enzyme thereto, and the mixture was incubated at 30° C. for 10 to 30 minutes. The reaction was quenched by hydrochloric acid, and the formed 5′-AMP was completely decomposed with […]. This sample was subjected to chromatography on DEAE-Sephadex A-25, and the eluted [^3H]adenosine was counted with a scintillation counter. The test compound was added after dissolved (concentration: 1.7%) in DMSO.

[3] = system: Male Sunkus murinus; assay: Vomiting test on male Sunkus; type: in vivo
Method: Vomiting Test on Male Sunkus
Male Sunkus murinus weighing about 60 g, 5 to 15 animals/group, were used in the test According to the method of Matsuki et al. (Japan J. Pharmacol., 48, 303 (1988)), each Sunkus animal was isolated and left in a wire-netting cage (15 cm width×21 cm length×15 cm height). Each test compound was suspended in physiological saline containing 0.5% Tween 80 and then intraperitoneally (i.p.) administered into each animal in a dose of 10 μl/g. […] The results were expressed in the number of animals with vomiting/the number of tested animals in the group given the test compound.
Compounds P and Q were used as the comparative compounds.

[4] = concentration of test compound 10^−7 mol/L
[5] = concentration of test compound 10^−8 mol/L

T1 sequence (P27815 224-886 limits assumed): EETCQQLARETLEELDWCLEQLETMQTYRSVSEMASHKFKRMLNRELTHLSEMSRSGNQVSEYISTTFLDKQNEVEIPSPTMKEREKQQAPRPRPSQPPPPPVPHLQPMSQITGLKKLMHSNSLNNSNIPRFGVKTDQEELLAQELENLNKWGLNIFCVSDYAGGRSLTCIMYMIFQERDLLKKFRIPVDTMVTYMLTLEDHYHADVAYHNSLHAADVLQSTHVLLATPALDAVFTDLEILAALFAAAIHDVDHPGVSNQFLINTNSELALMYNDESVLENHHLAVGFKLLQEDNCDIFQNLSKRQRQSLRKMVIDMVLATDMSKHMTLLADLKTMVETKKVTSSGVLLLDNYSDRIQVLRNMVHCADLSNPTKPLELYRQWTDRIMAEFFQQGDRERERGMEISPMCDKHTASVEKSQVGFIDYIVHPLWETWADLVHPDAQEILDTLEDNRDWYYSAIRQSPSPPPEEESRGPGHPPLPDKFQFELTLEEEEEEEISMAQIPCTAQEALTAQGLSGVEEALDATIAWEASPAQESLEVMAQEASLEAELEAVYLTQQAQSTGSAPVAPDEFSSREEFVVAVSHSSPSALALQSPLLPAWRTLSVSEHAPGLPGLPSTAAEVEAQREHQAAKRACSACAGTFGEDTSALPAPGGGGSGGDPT

Structure (SMILES) | melting point [°C] | Ratio of inhibition (%) [2, 4] [%] | Ratio of inhibition (%) [2, 5] [%] | Ratio of inhibition (%) of TNF α production [1] [%] | other results
COc1ccc(C(=O)Nc2c(Cl)cncc2Cl)c2cc(C(=O)N3CCN(CCCCO)CC3)oc12 [Compound 7, 4-(3,5-Dichloro-4-pyridyl)carbamoyl-2-(4-hydroxybutyl-1-piperazinyl)carbonyl-7-methoxybenzofuran] |  | 83 | 35 |  | 
COc1ccc(C(=O)Cc2ccncc2)c2c1OC1(CCCC1)C2 [Compound P, 7-methoxy-4-[1-oxo-2-(4-pyridyl)ethyl]-spiro[2,3-dihydrobenzofuran-2,1′-cyclopentane].hydrochloride, reference compound] |  |  |  | 81 | inhibitory activity on production of TNF α (in words) ([1]; summary of Table 3): high inhibitory activity; Number of animals with vomiting/Number of tested animals ([3]; Dose (mg) 10, intraperitoneal, observed for 1 hour): 5/5; vomiting as a side effect (in words) ([3]; summary of Table 4): caused vomiting
COc1ccc(C(=O)Nc2c(Cl)cncc2Cl)c2cc(C(=O)N3CCN(CCOCCO)CC3)oc12 [Compound 9, 4-(3,5-Dichloro-4-pyridyl)carbamoyl-2-{4-[2-(2-hydroxyethoxy)ethyl]-1-piperazinyl}carbonyl-7-methoxybenzofuran] | 132 to 133 | 78 | 29 |  | 
CCN1CCN(c2cc3c(C(=O)Cc4c(Cl)cncc4Cl)ccc(C(=O)OC)c3o2)CC1.O=C(O)/C=C/C(=O)O [Compound 15, 4-[2-(3,5-Dichloro-4-pyridyl)-1-oxoethyl]-2-(4-ethyl-1-piperazinyl)-7-methoxycarbonylbenzofuran Monofumarate] | 196 to 198 |  |  | 61 | 
COc1ccc(C(=O)Nc2c(Cl)cncc2Cl)c2cc(C(=O)N3CCN(CCCO)CC3)oc12 [Compound 6, 4-(3,5-Dichloro-4-pyridyl)carbamoyl-2-(4-hydroxypropyl-1-piperazinyl)carbonyl-7-methoxybenzofuran] | 180 to 182 | 81 | 24 | 33 | 
CCN1CCN(C(=O)c2cc3c(C(=O)Nc4c(Cl)cncc4Cl)ccc(OC)c3o2)CC1.O=C(O)/C=C/C(=O)O [Compound 3, 4-(3,5-Dichloro-4-pyridyl)carbamoyl-2-(4-ethyl-1-piperazinyl)carbonyl-7-methoxybenzofuran monofumarate] | 202 to 204 | 71 | 20 | 50 | 
COc1ccc(C(=O)Cc2c(Cl)cncc2Cl)c2cc(C(=O)N3CCNCC3)oc12.Cl [Compound 24, 4-[2-(3,5-Dichloro-4-pyridyl)-1-oxoethyl]-2-(1-piperazinyl)carbonyl-7-methoxybenzofuran Monohydrochloride] |  |  |  | 47 | 
COc1ccc(CCc2c(Cl)cncc2Cl)c2cc(C(=O)N3CCN(CCO)CC3)oc12.O=C(O)/C=C/C(=O)O | 184 to 185 |  |  |  | 
COC(=O)c1ccc(C(=O)Nc2c(Cl)cncc2Cl)c2cc(N3CCN(C(C)CO)CC3)oc12 (stereo not drawn) [Compound 4, 4-(3,5-Dichloro-4-pyridyl)carbamoyl-2-[4-(1-hydroxy-2-propyl)-1-piperazinyl]-7-methoxycarbonylbenzofuran] | 148 to 150 | 85 | 28 |  | 
COc1ccc(C(=O)Nc2c(Cl)cncc2Cl)c2cc(C(=O)N3CCNCC3)oc12 [Compound 12, 4-(3,5-Dichloro-4-pyridyl)carbamoyl-7-methoxy-2-(1-piperazinyl)carbonylbenzofuran] |  |  |  | 27 | 
COc1ccc(CCc2c(Cl)cncc2Cl)c2cc(C(=O)N3CCN(C)CC3)oc12.O=C(O)/C=C/C(=O)O | 186 to 187 |  |  |  | 

The next lines start with results.

melting point [°C] | Ratio of inhibition (%) [2, 4] [%] | Ratio of inhibition (%) [2, 5] [%] | Structure (SMILES) | Ratio of inhibition (%) of TNF α production [1] [%] | other results
120 to 121 |  |  | COc1ccc(C(=O)Cc2c(Cl)cncc2Cl)c2cc(C(=O)N3CCN(CCCCO)CC3)oc12 [Compound 21, 4-[2-(3,5-Dichloro-4-pyridyl)-1-oxoethyl]-2-[4-(4-hydroxybutyl)-1-piperazinyl]carbonyl-7-methoxybenzofuran] | 28 | 
184 to 185 |  |  | CCOCCN1CCN(C(=O)c2cc3c(C(=O)Cc4c(Cl)cncc4Cl)ccc(OC)c3o2)CC1.O=C(O)/C=C/C(=O)O [Compound 17, 4-[2-(3,5-Dichloro-4-pyridyl)-1-oxoethyl]-2-(4-ethoxyethyl-1-piperazinyl)carbonyl-7-methoxybenzofuran Monofumarate] | 62 | 
192 to 194 | 89 | 41 | CCC(CO)N1CCN(C(=O)c2cc3c(C(=O)Nc4c(Cl)cncc4Cl)ccc(OC)c3o2)CC1 (stereo not drawn) [Compound 5, 4-(3,5-Dichloro-4-pyridyl)carbamoyl-2-[4-(1-hydroxy-2-butyl)-1-piperazinyl]carbonyl-7-methoxybenzofuran] | 53 | 
187 to 188 |  |  | COc1ccc(C(=O)Cc2c(Cl)cncc2Cl)c2cc(C(=O)N3CC(C)N(CCO)C(C)C3)oc12 (stereo not drawn) [Compound 26, 4-[2-(3,5-Dichloro-4-pyridyl)-1-oxoethyl]-2-(3,5-dimethyl-4-hydroxyethyl-1-piperazinyl)carbonyl-7-methoxybenzofuran] |  | 
213 to 215 |  |  | COc1ccc(C(=O)Cc2c(Cl)cncc2Cl)c2cc(C(=O)N3CCN(C(CO)CO)CC3)oc12 [Compound 22, 4-[2-(3,5-Dichloro-4-pyridyl)-1-oxoethyl]-2-[4-(1,3-dihydroxy-2-propyl)-1-piperazinyl]carbonyl-7-methoxybenzofuran] | 52 | 
173 to 174 |  |  | COc1ccc(C(=O)Cc2c(Cl)cncc2Cl)c2cc(C(=O)N3CC(C)N(C)C(C)C3)oc12 (stereo not drawn) [Compound 25, 4-[2-(3,5-Dichloro-4-pyridyl)-1-oxoethyl]-7-methoxy-2-(3,4,5-trimethyl-1-piperazinyl)carbonylbenzofuran] | 53 | 
234 to 236 | 75 | 9 | COc1ccc(C(=O)Nc2c(Cl)cncc2Cl)c2cc(C(=O)N3CC(C)N(C)C(C)C3)oc12 (stereo not drawn) [Compound 10, 4-(3,5-Dichloro-4-pyridyl)carbamoyl-7-methoxy-2-(3,4,5-trimethyl-1-piperazinyl)carbonylbenzofuran] | 46 | 
 | 88 | 48 | COc1ccc(C(=O)Nc2c(Cl)cncc2Cl)c2cc(C(=O)N3CC(C)N(CCO)C(C)C3)oc12 (stereo not drawn) [Compound 11, 4-(3,5-Dichloro-4-pyridyl)carbamoyl-2-(3,5-dimethyl-4-hydroxyethyl-7-methoxy-1-piperazinyl)carbonylbenzofuran] |  | 
162 to 163 |  |  | COc1ccc(C(=O)Cc2c(Cl)cncc2Cl)c2cc(C(=O)N3CCN(CCCO)CC3)oc12 [Compound 20, 4-[2-(3,5-Dichloro-4-pyridyl)-1-oxoethyl]-2-[4-(3-hydroxypropyl)-1-piperazinyl]carbonyl-7-methoxybenzofuran] | 40 | 
195 to 196 |  |  | COc1ccc(C(=O)Cc2c(Cl)cncc2Cl)c2cc(C(=O)N3CCN(C(C)C)CC3)oc12.O=C(O)/C=C/C(=O)O [Compound 16, 4-[2-(3,5-Dichloro-4-pyridyl)-1-oxoethyl]-2-(4-isopropyl-1-piperazinyl)carbonyl-7-methoxybenzofuran Monofumarate] | 67 | 
132 to 133 |  |  | COc1ccc(C(=O)Cc2c(Cl)cncc2Cl)c2cc(C(=O)N3CCN(CCOCCO)CC3)oc12 [Compound 23, 4-[2-(3,5-Dichloro-4-pyridyl)-1-oxoethyl]-2-{4-[2-(2-hydroxyethoxy)ethyl]-1-piperazinyl}carbonyl-7-methoxybenzofuran] |  | 
187 to 189 |  |  | COc1ccc(C(=O)Cc2c(Cl)cncc2Cl)c2cc(C(=O)N3CCN(C(C)CO)CC3)oc12 (stereo not drawn) [Compound 18, 4-[2-(3,5-Dichloro-4-pyridyl)-1-oxoethyl]-2-[4-(1-hydroxy-2-propyl)-1-piperazinyl]carbonyl-7-methoxybenzofuran] | 66 | 
150 to 152 |  |  | CCC(CO)N1CCN(C(=O)c2cc3c(C(=O)Cc4c(Cl)cncc4Cl)ccc(OC)c3o2)CC1 (stereo not drawn) [Compound 19, 4-[2-(3,5-Dichloro-4-pyridyl)-1-oxoethyl]-2-[4-(1-hydroxy-2-butyl)-1-piperazinyl]carbonyl-7-methoxybenzofuran] | 68 | 

From patent US6395738B1, “Benzofuran derivatives” (Kyowa Hakko Kogyo Co., Ltd., priority 1997, dated 2002)
